Test results as given in US7435820B2, “Substituted tetrahydro-1H-pyrazolo [3,4-c]pyridines compositions comprising them, and use” (Aventis Pharma S.A., priority 2003, dated 2008).

target: T1, human Tie2 (Homo sapiens, UniProt Q02763); assay: Tie2 kinase inhibition: phosphorylation of GST-PLC (SH2-SH3 fragments) by GST-Tie2, 33P-ATP flashplate; type: biochemical; details: Assay 1, 10 µM
T1 construct: human Tie2 corresponding to amino acids 776-1124 of the intracellular domain was generated by PCR; made in house; host or cells: baculovirus expression system (vector pFastBacGT)
Protocol: The coding sequence of human Tie2 corresponding to amino acids 776-1124 of the intracellular domain was generated by PCR using the cDNA isolated from human placenta as model. This sequence was introduced into a baculovirus expression vector pFastBacGT in the form of a GST fusion protein.
The inhibitory effect of the molecules is determined in an assay for phosphorylation of PLC by Tie2 in the presence of GST-Tie2 purified to approximately 80% homogeneity. The substrate is made up of the SH2-SH3 fragments of PLC, the latter being expressed in the form of a GST fusion protein.
The kinase activity of Tie2 is measured in a 20 mM MOPS buffer, pH 7.2, containing 10 mM MgCl2, 10 mM MnCl2, 1 mM DTT and 10 mM of glycerophosphate. A reaction mixture made up of 70 μl of kinase buffer containing 100 ng of GST-Tie2 enzyme per well is placed in a flashplate 96-well plate kept on ice. 10 μl of the molecule to be tested, diluted in DMSO, at a concentration of at most 10% are then added. For a given concentration, each measurement is carried out in quadruplicate. The reaction is initiated by adding 20 μl of solution containing 2 μg of GST-PLC, 2 μM of cold ATP and 1 μCi of ^33P[ATP]. After incubation for 1 hour at 37° C., the reaction is stopped by adding 1 volume (100 μl) of 200 mM EDTA. After removal of the incubation buffer, the wells are washed three times with 300 μl of PBS. The radioactivity is measured on a Wallac MicroBeta 1450.
The inhibition of the Tie2 activity is calculated and expressed as percentage inhibition with respect to the control activity determined in the absence of compound.

T1 sequence (Q02763 776-1124): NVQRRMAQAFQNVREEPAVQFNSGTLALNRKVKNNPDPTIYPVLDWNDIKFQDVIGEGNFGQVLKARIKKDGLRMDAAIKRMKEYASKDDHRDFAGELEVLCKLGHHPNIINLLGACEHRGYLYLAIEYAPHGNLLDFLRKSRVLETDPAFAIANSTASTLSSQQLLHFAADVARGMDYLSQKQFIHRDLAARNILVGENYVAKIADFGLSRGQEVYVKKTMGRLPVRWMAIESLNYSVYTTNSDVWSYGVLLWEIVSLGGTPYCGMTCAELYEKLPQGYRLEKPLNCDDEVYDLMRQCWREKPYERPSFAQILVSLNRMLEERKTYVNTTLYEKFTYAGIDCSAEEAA

| Tie2 % Inhib at 10 μM (FRX) Assay 1 [%] | SMILES |
| --- | --- |
| 78.7 | Cc1cc2nc(-c3[nH]nc4c3CCN(C(=O)c3ccccc3Nc3cccc(C(F)(F)F)c3)C4)[nH]c2cc1C [Example P-31378-112-3] |

same assay, conditions: Assay 1, read-out: Tie2 % Inhib at 10 μM (FRX) Assay 1

| inhibition at 10 µM [%] | SMILES |
| --- | --- |
| 80.1 | Cc1cc2nc(-c3[nH]nc4c3CCN(C(=O)c3ccccc3NC(=O)c3ccc(Cl)cc3)C4)[nH]c2cc1C [Example P-31378-112-15] |
| 69.7 | Cc1cc2c(cc1C)NC(c1[nH]nc3c1CCN(C(=O)c1ccc(C)c([N+](=O)[O-])c1)C3)N2 [Example P-31378-112-14] |
| 92.7 | Cc1cc2nc(-c3[nH]nc4c3CCN(C(=O)c3ccccc3CCc3ccccc3)C4)[nH]c2cc1C [Example P-31378-112-7] |
| 82.6 | Cc1cc2nc(-c3[nH]nc4c3CCN(C(=O)c3ccccc3OCc3ccccc3)C4)[nH]c2cc1C [Example P-31378-112-9] |
| 87.1 | Cc1cc2nc(-c3[nH]nc4c3CCN(C(=O)c3ccccc3Oc3ccccc3)C4)[nH]c2cc1C [Example P-31378-112-5] |
| 83.1 | Cc1cc2nc(-c3[nH]nc4c3CCN(C(=O)c3ccccc3Nc3cccc(C(F)(F)F)c3)C4)[nH]c2cc1C [Example P-31378-112-4] |
| 90.6 | Cc1cc2nc(-c3[nH]nc4c3CCN(C(=O)c3ccccc3Nc3cccc(Cl)c3C)C4)[nH]c2cc1C [Example P-31375-112-10] |

same assay, conditions: Assay 2, 10 µM

| Tie2 % Inhib at 10 μM (FRX) Assay 2 [%] | SMILES |
| --- | --- |
| 79.1 | Cc1cc2nc(-c3[nH]nc4c3CCN(C(=O)c3ccccc3Nc3cccc(C(F)(F)F)c3)C4)[nH]c2cc1C [Example P-31378-112-3] |

same assay, conditions: Assay 2, read-out: Tie2 % Inhib at 10 μM (FRX) Assay 2

| inhibition at 10 µM [%] | SMILES |
| --- | --- |
| 83.8 | Cc1cc2nc(-c3[nH]nc4c3CCN(C(=O)c3ccccc3NC(=O)c3ccc(Cl)cc3)C4)[nH]c2cc1C [Example P-31378-112-15] |
| 73.8 | Cc1cc2c(cc1C)NC(c1[nH]nc3c1CCN(C(=O)c1ccc(C)c([N+](=O)[O-])c1)C3)N2 [Example P-31378-112-14] |
| 92 | Cc1cc2nc(-c3[nH]nc4c3CCN(C(=O)c3ccccc3CCc3ccccc3)C4)[nH]c2cc1C [Example P-31378-112-7] |
| 85.9 | Cc1cc2nc(-c3[nH]nc4c3CCN(C(=O)c3ccccc3OCc3ccccc3)C4)[nH]c2cc1C [Example P-31378-112-9] |
| 86.4 | Cc1cc2nc(-c3[nH]nc4c3CCN(C(=O)c3ccccc3Oc3ccccc3)C4)[nH]c2cc1C [Example P-31378-112-5] |
| 87.2 | Cc1cc2nc(-c3[nH]nc4c3CCN(C(=O)c3ccccc3Nc3cccc(C(F)(F)F)c3)C4)[nH]c2cc1C [Example P-31378-112-4] |
| 87.9 | Cc1cc2nc(-c3[nH]nc4c3CCN(C(=O)c3ccccc3Nc3cccc(Cl)c3C)C4)[nH]c2cc1C [Example P-31375-112-10] |

same assay, conditions: read-out: Tie2 % Inhib. 10 μM

| inhibition at 10 µM [%] | SMILES |
| --- | --- |
| 60.3 | Cc1cc2nc(-c3[nH]nc4c3CCN(Cc3ccc(Cl)cc3)C4)[nH]c2cc1C [Chemistry 12] |
| 91.5 | Cc1cc2nc(-c3[nH]nc4c3CCN(S(=O)(=O)Cc3ccccc3)C4)[nH]c2cc1C [Chemistry 24] |
| 50.5 | Cc1cc2nc(-c3[nH]nc4c3CCN(Cc3cccnc3)C4)[nH]c2cc1C [Chemistry 14] |
| 91.5 | Cc1cc2nc(-c3[nH]nc4c3CCN(S(=O)(=O)c3cccc(Cl)c3)C4)[nH]c2cc1C [Chemistry 32] |
| 92.7 | Cc1cc2nc(-c3[nH]nc4c3CCN(C(=O)c3ccco3)C4)[nH]c2cc1C [Chemistry 53] |
| 87.7 | Cc1cc2nc(-c3[nH]nc4c3CCN(C(=O)c3cccc(Cl)c3)C4)[nH]c2cc1C [Chemistry 47] |
| 65.4 | Cc1cc2nc(-c3[nH]nc4c3CCN(C(=O)CN(C)C)C4)[nH]c2cc1C [Chemistry 55] |
| 21 | Cc1cc2nc(-c3[nH]nc4c3CCN(C(=O)Nc3cccc(Cl)c3)C4)[nH]c2cc1C [Chemistry 62] |
| 93.2 | Cc1cc2nc(-c3[nH]nc4c3CCN(S(=O)(=O)c3ccccc3Cl)C4)[nH]c2cc1C [Chemistry 31] |
| 47.5 | CCCS(=O)(=O)N1CCc2c(n[nH]c2-c2nc3cc(C)c(C)cc3[nH]2)C1 [Chemistry 29] |
| 59.3 | O=C(c1cccnc1)N1CCc2c(n[nH]c2-c2nc3ccccc3[nH]2)C1 [Chemistry 69] |
| 68.1 | Cc1cc2nc(-c3[nH]nc4c3CCN(CCCc3ccccc3)C4)[nH]c2cc1C [Chemistry 19] |

target: T2, human KDR enzyme (Homo sapiens, UniProt P35968); assay: KDR kinase inhibition: phosphorylation of PLCγ SH2-SH3 substrate by KDR enzyme, 33P-ATP scintillation plate; type: biochemical; details: Assay 1
T2 construct: The cytoplasmic domain of the human KDR enzyme was cloned in GST fusion form; GST; made in house; host or cells: SF21 insect cells (baculovirus, pFastBac)
Protocol: The inhibitory effect of the compounds is determined in an assay for phosphorylation of substrate by the KDR enzyme in vitro using a scintillation technique (96-well plate, NEN).
The cytoplasmic domain of the human KDR enzyme was cloned in GST fusion form into the baculovirus expression vector pFastBac. The protein was expressed in SF21 cells and purified to approximately 60% homogeneity. The KDR kinase activity is measured in 20 mM MOPS, 10 mM MgCl2, 10 mM MnCl2, 1 mM DTT, 2.5 mM EGTA, 10 mM b-glycerophosphate, pH=7.2, in the presence of 10 mM MgCl2, 100 μM Na3VO4 and 1 mM NaF. 10 μl of the compound are added to 70 μl of kinase buffer containing 100 ng of KDR enzyme at 4° C. The reaction is initiated by adding 20 μl of solution containing 2 μg of substrate (SH2-SH3 fragment of PLCγ expressed in the form of an GST fusion protein), 2 μCi γ ^33P[ATP] and 2 μM cold ATP. After incubation for 1 hour at 37° C., the reaction is stopped by adding 1 volume (100 μl) of 200 mM EDTA. The incubation buffer is removed and the wells are washed three times with 300 μl of PBS. The radioactivity is measured in each well using a Top Count NXT (Packard) radioactivity counter.
The background noise is determined by measuring the radioactivity in four different wells containing the radioactive ATP and the substrate alone.
A total activity control is measured in four different wells containing all the reagents (γ^33P-[ATP], KDR and PLC-γ substrate) but in the absence of compound.
The inhibition of the KDR activity with the compound of the invention is expressed as percentage inhibition of the control activity determined in the absence of compound.
The compound SU5614 (Calbiochem) (1 μM) is included in each plate as inhibition control.

T2 sequence (P35968 786-1356 limits assumed): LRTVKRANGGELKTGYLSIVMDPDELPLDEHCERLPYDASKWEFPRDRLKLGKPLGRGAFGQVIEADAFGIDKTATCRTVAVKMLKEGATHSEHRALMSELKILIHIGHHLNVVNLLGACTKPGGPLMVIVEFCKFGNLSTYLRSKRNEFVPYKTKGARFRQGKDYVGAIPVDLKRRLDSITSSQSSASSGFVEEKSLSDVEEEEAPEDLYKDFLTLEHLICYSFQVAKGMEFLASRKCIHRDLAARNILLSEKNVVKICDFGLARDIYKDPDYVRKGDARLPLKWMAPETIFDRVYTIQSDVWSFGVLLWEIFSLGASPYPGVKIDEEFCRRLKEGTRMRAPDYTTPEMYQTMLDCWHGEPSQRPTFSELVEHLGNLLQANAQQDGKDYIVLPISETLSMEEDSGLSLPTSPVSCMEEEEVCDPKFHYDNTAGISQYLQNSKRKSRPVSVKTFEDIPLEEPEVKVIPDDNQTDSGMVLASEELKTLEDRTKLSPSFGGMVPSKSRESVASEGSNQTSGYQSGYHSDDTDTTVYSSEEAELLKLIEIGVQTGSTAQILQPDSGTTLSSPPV

| KDR % Inhib at 10 μM Assay 1 [%] | SMILES |
| --- | --- |
| 59.0 | Cc1cc2nc(-c3[nH]nc4c3CCN(C(=O)c3ccccc3Nc3cccc(C(F)(F)F)c3)C4)[nH]c2cc1C [Example P-31378-112-3] |

same assay, conditions: Assay 1, read-out: KDR % Inhib at 10 μM Assay 1

| inhibition at 10 µM [%] | SMILES |
| --- | --- |
| 75.5 | Cc1cc2nc(-c3[nH]nc4c3CCN(C(=O)c3ccccc3NC(=O)c3ccc(Cl)cc3)C4)[nH]c2cc1C [Example P-31378-112-15] |
| 19.5 | Cc1cc2c(cc1C)NC(c1[nH]nc3c1CCN(C(=O)c1ccc(C)c([N+](=O)[O-])c1)C3)N2 [Example P-31378-112-14] |
| 68.6 | Cc1cc2nc(-c3[nH]nc4c3CCN(C(=O)c3ccccc3CCc3ccccc3)C4)[nH]c2cc1C [Example P-31378-112-7] |
| 53.2 | Cc1cc2nc(-c3[nH]nc4c3CCN(C(=O)c3ccccc3OCc3ccccc3)C4)[nH]c2cc1C [Example P-31378-112-9] |
| 94.7 | Cc1cc2nc(-c3[nH]nc4c3CCN(C(=O)c3ccccc3Oc3ccccc3)C4)[nH]c2cc1C [Example P-31378-112-5] |
| 56.2 | Cc1cc2nc(-c3[nH]nc4c3CCN(C(=O)c3ccccc3Nc3cccc(C(F)(F)F)c3)C4)[nH]c2cc1C [Example P-31378-112-4] |
| 42.3 | Cc1cc2nc(-c3[nH]nc4c3CCN(C(=O)c3ccccc3Nc3cccc(Cl)c3C)C4)[nH]c2cc1C [Example P-31375-112-10] |

same assay, conditions: Assay 2

| KDR % Inhib at 10 μM Assay 2 [%] | SMILES |
| --- | --- |
| 56.5 | Cc1cc2nc(-c3[nH]nc4c3CCN(C(=O)c3ccccc3Nc3cccc(C(F)(F)F)c3)C4)[nH]c2cc1C [Example P-31378-112-3] |

same assay, conditions: Assay 2, read-out: KDR % Inhib at 10 μM Assay 2

| inhibition at 10 µM [%] | SMILES |
| --- | --- |
| 77.4 | Cc1cc2nc(-c3[nH]nc4c3CCN(C(=O)c3ccccc3NC(=O)c3ccc(Cl)cc3)C4)[nH]c2cc1C [Example P-31378-112-15] |
| 13 | Cc1cc2c(cc1C)NC(c1[nH]nc3c1CCN(C(=O)c1ccc(C)c([N+](=O)[O-])c1)C3)N2 [Example P-31378-112-14] |
| 64.3 | Cc1cc2nc(-c3[nH]nc4c3CCN(C(=O)c3ccccc3CCc3ccccc3)C4)[nH]c2cc1C [Example P-31378-112-7] |
| 45.1 | Cc1cc2nc(-c3[nH]nc4c3CCN(C(=O)c3ccccc3OCc3ccccc3)C4)[nH]c2cc1C [Example P-31378-112-9] |
| 95.4 | Cc1cc2nc(-c3[nH]nc4c3CCN(C(=O)c3ccccc3Oc3ccccc3)C4)[nH]c2cc1C [Example P-31378-112-5] |
| 50.1 | Cc1cc2nc(-c3[nH]nc4c3CCN(C(=O)c3ccccc3Nc3cccc(C(F)(F)F)c3)C4)[nH]c2cc1C [Example P-31378-112-4] |
| 28.7 | Cc1cc2nc(-c3[nH]nc4c3CCN(C(=O)c3ccccc3Nc3cccc(Cl)c3C)C4)[nH]c2cc1C [Example P-31375-112-10] |

same assay, conditions: read-out: KDR % Inhib. 10 μM

| inhibition at 10 µM [%] | SMILES |
| --- | --- |
| 69 | Cc1cc2nc(-c3[nH]nc4c3CCN(Cc3ccc(Cl)cc3)C4)[nH]c2cc1C [Chemistry 12] |
| 70.8 | Cc1cc2nc(-c3[nH]nc4c3CCN(S(=O)(=O)Cc3ccccc3)C4)[nH]c2cc1C [Chemistry 24] |
| 14.8 | Cc1cc2nc(-c3[nH]nc4c3CCN(Cc3cccnc3)C4)[nH]c2cc1C [Chemistry 14] |
| 46.5 | Cc1cc2nc(-c3[nH]nc4c3CCN(S(=O)(=O)c3cccc(Cl)c3)C4)[nH]c2cc1C [Chemistry 32] |
| 74.5 | Cc1cc2nc(-c3[nH]nc4c3CCN(C(=O)c3ccco3)C4)[nH]c2cc1C [Chemistry 53] |
| 78.5 | Cc1cc2nc(-c3[nH]nc4c3CCN(C(=O)c3cccc(Cl)c3)C4)[nH]c2cc1C [Chemistry 47] |
| 15.9 | Cc1cc2nc(-c3[nH]nc4c3CCN(C(=O)CN(C)C)C4)[nH]c2cc1C [Chemistry 55] |
| 12.8 | Cc1cc2nc(-c3[nH]nc4c3CCN(C(=O)Nc3cccc(Cl)c3)C4)[nH]c2cc1C [Chemistry 62] |
| 45.7 | Cc1cc2nc(-c3[nH]nc4c3CCN(S(=O)(=O)c3ccccc3Cl)C4)[nH]c2cc1C [Chemistry 31] |
| 13.3 | CCCS(=O)(=O)N1CCc2c(n[nH]c2-c2nc3cc(C)c(C)cc3[nH]2)C1 [Chemistry 29] |
| 18.6 | O=C(c1cccnc1)N1CCc2c(n[nH]c2-c2nc3ccccc3[nH]2)C1 [Chemistry 69] |
| 17.9 | Cc1cc2nc(-c3[nH]nc4c3CCN(CCCc3ccccc3)C4)[nH]c2cc1C [Chemistry 19] |
